Test results from ChEMBL document CHEMBL1156915, “Synthesis of new thienyl ring containing HIV-1 protease inhibitors: promising preliminary pharmacological evaluation against recombinant HIV-1 proteases” (J Med Chem, 2010).
One block for each molecule: values may come before it.

What was measured:
[1] = target: Protease (Human immunodeficiency virus 1, UniProt Q9YQ12); test: Inhibition of recombinant wild type HIV1 protease assessed as hydrolysis of fluorogenic substrate
[2] = target: Protease (Human immunodeficiency virus 1) (UniProt Q9YQ12); test: Inhibition of recombinant HIV1 protease assessed as residual activity at 10 nM by fluorogenic substrate assay; values are per cent of control
Sequence of Protease (Human immunodeficiency virus 1) (Q9YQ12 as listed by the source): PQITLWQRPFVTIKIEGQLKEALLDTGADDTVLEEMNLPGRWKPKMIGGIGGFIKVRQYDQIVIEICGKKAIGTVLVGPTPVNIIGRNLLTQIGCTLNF

[3] = target: Protease (Human immunodeficiency virus 1) (UniProt Q9YQ12); test: Inhibition of recombinant wild type HIV1 protease assessed as residual activity at 1 nM by fluorogenic substrate assay; values are per cent of control
[4] = test system: Human immunodeficiency virus type 1 protease (Human immunodeficiency virus 1), Q72874 [V32I]; test: Inhibition of recombinant HIV1 protease V32I mutant assessed as residual activity at 1 nM by fluorogenic substrate assay; values are per cent of control
[5] = test system: Human immunodeficiency virus type 1 protease (Human immunodeficiency virus 1), Q72874 [V82A]; test: Inhibition of recombinant HIV1 protease V82A mutant assessed as residual activity at 1 nM by fluorogenic substrate assay; values are per cent of control
[6] = test system: Human immunodeficiency virus type 1 protease (Human immunodeficiency virus 1), Q72874 [V32I]; test: Inhibition of recombinant HIV1 protease V32I mutant assessed as residual activity at 10 nM by fluorogenic substrate assay; values are per cent of control

Sequence of Protease (Q9YQ12 whole entry): as the sequence (Q9YQ12 as listed by the source) above

SMILES: Cc1c(O)cccc1C(=O)N[C@@H](Cc1cccs1)[C@H](O)CN1C[C@H]2CCCC[C@H]2C[C@H]1C(=O)NC(C)(C)C
IC50 [1]: 2.9 nM
residual activity [2]: 5%
residual activity [3]: 34%
residual activity [4]: 97%
residual activity [5]: 60%
residual activity [6]: 32%

SMILES: CC(C)(C)NC(=O)[C@@H]1C[C@@H]2CCCC[C@@H]2CN1C[C@@H](O)[C@H](Cc1cc2ccccc2s1)NC(=O)C(CC(N)=O)NC(=O)c1ccc2ccccc2n1 (single isomer, unassigned)
IC50 [1]: 0.6 nM
residual activity [3]: 53%
residual activity [5]: 37%

SMILES: Cc1c(O)cccc1C(=O)N[C@@H](c1cccs1)[C@H](O)CN1C[C@H]2CCCC[C@H]2C[C@H]1C(=O)NC(C)(C)C
IC50 [1]: 30000 nM

SMILES: Cc1c(O)cccc1C(=O)N[C@@H](CSc1ccccc1)[C@H](O)CN1C[C@H]2CCCC[C@H]2C[C@H]1C(=O)NC(C)(C)C
IC50 [1]: 1.9 nM

SMILES: CC(C)(C)NC(=O)[C@@H]1C[C@@H]2CCCC[C@@H]2CN1C[C@@H](O)[C@H](Cc1cc(-c2ccccc2)cs1)NC(=O)C(CC(N)=O)NC(=O)c1ccc2ccccc2n1 (single isomer, unassigned)
IC50 [1]: 1.2 nM

SMILES: CC(C)(C)NC(=O)[C@@H]1C[C@@H]2CCCC[C@@H]2CN1C[C@@H](O)[C@@H](NC(=O)[C@H](CC(N)=O)NC(=O)c1ccc2ccccc2n1)c1cc(-c2ccccc2)cs1
IC50 [1]: 1500 nM

Continued by falling IC50 [1], values first:

IC50 [1]: 5000 nM
SMILES: CC(C)(C)NC(=O)[C@@H]1C[C@@H]2CCCC[C@@H]2CN1C[C@@H](O)[C@@H](NC(=O)[C@H](CC(N)=O)NC(=O)c1ccc2ccccc2n1)c1cccs1

IC50 [1]: 4000 nM
SMILES: Cc1c(O)cccc1C(=O)N[C@@H](c1cc(-c2ccccc2)cs1)[C@H](O)CN1C[C@H]2CCCC[C@H]2C[C@H]1C(=O)NC(C)(C)C

IC50 [1]: 21 nM
SMILES: CC(C)(C)NC(=O)[C@@H]1C[C@@H]2CCCC[C@@H]2CN1C[C@@H](O)[C@H](Cc1cccs1)NC(=O)C(CC(N)=O)NC(=O)c1ccc2ccccc2n1 (single isomer, unassigned)

IC50 [1]: 15 nM
SMILES: Cc1c(O)cccc1C(=O)N[C@@H](Cc1cc2ccccc2s1)[C@H](O)CN1C[C@H]2CCCC[C@H]2C[C@H]1C(=O)NC(C)(C)C

IC50 [1]: 6 nM
SMILES: Cc1c(O)cccc1C(=O)N[C@@H](Cc1cc(-c2ccccc2)cs1)[C@H](O)CN1C[C@H]2CCCC[C@H]2C[C@H]1C(=O)NC(C)(C)C
